Source: PMC10545747, “Development of cyclopeptide inhibitors of cGAS targeting protein-DNA interaction and phase separation” (Nature Communications, 2023)
Values joined by “and” are separate entries in the source; they are usually repeats but may differ in a detail not shown here. Equal entries are not always repeated. Square brackets hold non-standard residues; d marks the D form. Peptide text beside a SMILES is read from it.

System: HSV-1-infected THP1 cells
Experiment: qPCR of IFNB1/CXCL10/IL6 mRNA in THP1 cells stimulated by HSV-1 infection
Format: cell-based, human

SMILES: CC(C)C[C@@H]1NC(=O)[C@H](CCCNC(=N)N)NC(=O)[C@H](C(C)C)NC(=O)[C@@H]2CCCN2C(=O)[C@@H](Cc2ccccc2)NC(=O)[C@H](CC(C)C)NC(=O)[C@H](CCCNC(=N)N)NC(=O)[C@H](C(C)C)NC(=O)[C@H](C)NC(=O)[C@@H](Cc2ccccc2)NC1=O [XQ2, Cyclo (LfAVRLfPVR)] (cyclo(L[dF]AVRL[dF]PVR))
- CXCL10 mRNA (Fig. S2b) (HSV-1, XQ2 0.31 μM): 13697.8 and 18057.7 and 19972.6
- IFNB1 mRNA (Fig. S2b) (HSV-1, XQ2 0.31 μM): 103.029 and 97.656 and 104.314
- IL6 mRNA (Fig. S2b) (HSV-1, XQ2 0.31 μM): 94.9854 and 106.129 and 109.338
- CXCL10 mRNA (Fig. S2b) (HSV-1, XQ2 0.63 μM): 14561.5 and 17791.3 and 14971.8
- IFNB1 mRNA (Fig. S2b) (HSV-1, XQ2 0.63 μM): 91.2373 and 106.205 and 112.809
- IL6 mRNA (Fig. S2b) (HSV-1, XQ2 0.63 μM): 98.3879 and 100.916 and 99.3832
- CXCL10 mRNA (Fig. S2b) (HSV-1, XQ2 1.25 μM): 13878.7 and 14634.4 and 14561.7
- IFNB1 mRNA (Fig. S2b) (HSV-1, XQ2 1.25 μM): 97.5861 and 86.027 and 97.3512
- IL6 mRNA (Fig. S2b) (HSV-1, XQ2 1.25 μM): 83.7674 and 88.7511 and 90.6215
- CXCL10 mRNA (Fig. S2b) (HSV-1, XQ2 2.5 μM): 11116.4 and 12643.3 and 12467.1
- IFNB1 mRNA (Fig. S2b) (HSV-1, XQ2 2.5 μM): 73.1655 and 85.1476 and 97.1694
- IL6 mRNA (Fig. S2b) (HSV-1, XQ2 2.5 μM): 59.5539 and 58.6936 and 59.7795
- CXCL10 mRNA (Fig. S2b) (HSV-1, XQ2 5 μM): 4443.66 and 5989.75 and 4916.38
- IFNB1 mRNA (Fig. S2b) (HSV-1, XQ2 5 μM): 58.3528 and 60.5599 and 78.4822
- IL6 mRNA (Fig. S2b) (HSV-1, XQ2 5 μM): 37.2474 and 41.0154 and 36.4161
- CXCL10 mRNA (Fig. S2b) (HSV-1, XQ2 10 μM): 610.463 and 931.698 and 780.881
- IFNB1 mRNA (Fig. S2b) (HSV-1, XQ2 10 μM): 20.0242 and 25.5972 and 33.1577
- CXCL10 mRNA (Fig. S2b) (Mock, XQ2 0.31 μM): 0.6255 and 0.7855 and 0.8542
- IFNB1 mRNA (Fig. S2b) (Mock, XQ2 0.31 μM): 0.7527 and 0.6452 and 0.8722
- IL6 mRNA (Fig. S2b) (Mock, XQ2 0.31 μM): 0.9875 and 1.125 and 1.458
- CXCL10 mRNA (Fig. S2b) (Mock, XQ2 0.63 μM): 0.4588 and 0.432 and 0.4044
- IFNB1 mRNA (Fig. S2b) (Mock, XQ2 0.63 μM): 0.713 and 0.5919 and 0.8053
- IL6 mRNA (Fig. S2b) (Mock, XQ2 0.63 μM): 1.48 and 1.078 and 1.222
- CXCL10 mRNA (Fig. S2b) (Mock, XQ2 1.25 μM): 1.308 and 1.359 and 1.615
- IFNB1 mRNA (Fig. S2b) (Mock, XQ2 1.25 μM): 0.9026 and 1.107 and 1.382
- CXCL10 mRNA (Fig. S2b) (Mock, XQ2 2.5 μM): 3.137 and 2.991 and 2.833
- IFNB1 mRNA (Fig. S2b) (Mock, XQ2 2.5 μM): 1.426 and 1.751 and 1.799
- IL6 mRNA (Fig. S2b) (Mock, XQ2 2.5 μM): 2.387 and 2.459 and 3.439
- CXCL10 mRNA (Fig. S2b) (Mock, XQ2 5 μM): 1.923 and 2.134 and 2.246
- IFNB1 mRNA (Fig. S2b) (Mock, XQ2 5 μM): 1.17 and 1.093 and 1.0788
- CXCL10 mRNA (Fig. S2b) (Mock, XQ2 10 μM): 4.593 and 4.941 and 4.3739
- IFNB1 mRNA (Fig. S2b) (Mock, XQ2 10 μM): 1.523 and 2.285 and 2.284
- IL6 mRNA (Fig. S2b) (Mock, XQ2 10 μM): 4.656 and 4.111 and 3.925
- HSV-1-induced IFNB1, CXCL10, IL6 expression (THP1): inhibited the expression level of IFNΒ1 and CXCL10, as well as IL6
- IFNB1 mRNA, qPCR, Fig. 2b (THP1, HSV-1, 10 μM): 17.701 and 20.2819 and 20.0106
